Patent US7772177B2, “BIR domain binding compounds” (Aegera Therapeutics, Inc., priority 2005, dated 2010)
Where a name gives a salt, the structure may show the parent alone.

Legend:
SKOV-3 cell line = assay: Cell survival, SKOV-3 cell line; assay type: cell-based; conditions: Homo sapiens, SK-OV-3
Procedure: (§1) Survival assays were routinely done on MDA-MB-231 and H460 cells. Cells were seeded in 96 well plates at a respective density of 5000 and 2000 cells per well and incubated at 37° C. in presence of 5% CO2 for 24 hours. Selected compounds were diluted into the media at various concentration ranging from 0.01 uM up to 100 uM. Diluted compounds were added onto the MDA-MB-231 cells. For H460 cells, the compounds were added either alone or in presence of 3 ng/ml of TRAIL. After 72 hours cellular viability was evaluated by MTS based assays. A solution of [3-(4,5-dimethylthiazol-2-yl)-5-(3-carboxymethoxyphenyl)-2-(4-sulfophenyl)-2H-tetrazolium, inner salt; MTS] was added onto cells for a period of 1 to 4 hours. Upon incubation the amount of converted MTS was evaluated using a Tecan spectrophotometer set at 570 nm.
Various compounds, including compounds 16, 42, 44, 45, 48, 52, 53, 75, 84 and 89, were tested in the MDA-MB-231 breast derived cell line and found to have EC50 of <5 μM. […] Also, various compounds 175, 176, 177 and 178 were tested against SKOV-3 cell line, and found to have EC50 of <5 μM.

[1] = biological target: T1, XIAP Bir2-Bir3-RING (GST-linker BIR2 BIR3RING) (Homo sapiens, UniProt P98170); assay: Caspase de-repression assay using cellular extracts (apoptosome), XIAP Bir2-Bir3-RING; assay type: biochemical; conditions: 293 cell S100 extract
T1 construct: made in house; host or cells: E. coli DH5-alpha
T1 sequence (P98170 93-497): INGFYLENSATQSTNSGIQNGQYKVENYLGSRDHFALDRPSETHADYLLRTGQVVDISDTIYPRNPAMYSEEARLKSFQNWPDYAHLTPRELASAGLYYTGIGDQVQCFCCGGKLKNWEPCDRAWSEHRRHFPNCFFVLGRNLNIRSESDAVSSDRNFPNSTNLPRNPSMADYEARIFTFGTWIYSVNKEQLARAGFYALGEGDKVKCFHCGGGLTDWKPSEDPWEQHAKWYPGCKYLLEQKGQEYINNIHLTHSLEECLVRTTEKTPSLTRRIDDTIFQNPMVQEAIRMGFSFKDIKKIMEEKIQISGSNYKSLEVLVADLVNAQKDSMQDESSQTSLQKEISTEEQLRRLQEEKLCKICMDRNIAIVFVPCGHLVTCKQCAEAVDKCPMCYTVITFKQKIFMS
Procedure: 100 ug of 293 cell S100 extract and 0.25 uM-2 uM of GST-Xiap fusion protein (GST-BIR 3RING, GST-linker BIR2 BIR3RING) were co-incubated with serial dilutions of compound (0.02 uM-40 uM). Extracts were activated by adding 1 mM dATP, 0.1 mM ALLN, 133 ug Cytochrome C (final concentrations), and incubating at 37° C. for 25 minutes. All reactions and dilutions used S100 buffer (50 mM Pipes pH 7.0, 50 mM KCl, 0.5 mM EGTA pH 8.0, 2 mM MgCl2 supplemented with 1/1000 dilutions of 2 mg/ml Cytochalisin B, 2, mg/ml Chymotstatin, Leupeptin, Pepstatin, Antipain, 0.1M PMSF, 1M DTT). Final reaction volume was 30 ul. Caspase-3 activity was measured by overlaying 30 ul of a 0.4 mM DEVD-AMC solution. AMC cleavage was measured in a TECAN spectrophotometer at 360 nm excitation and 444 nm emission, on a kinetic cycle of 1 hour with readings taken every 5 minutes. Caspase activity was calculated as Vo of AMC fluorescence/sec. Caspase de-repression by our compounds were compared to fully activated extract and activated extract repressed by the presence of XIAP fusion protein.
(§2) Results: Compounds were also tested in the apoptosome assay and the linker-BIR2/caspase-3 inhibition assay and found to have IC50s in the following ranges: A: >10 μM; B: <10 μM; C: <1 μM, as shown in Table 7.

[2] = biological target: T2, XIAP Bir3-RING (GST-BIR 3RING) (Homo sapiens, UniProt P98170); assay: Caspase de-repression assay using cellular extracts (apoptosome), XIAP Bir3-RING; assay type: biochemical; conditions: 293 cell S100 extract
T2 construct: made in house; host or cells: E. coli DH5-alpha
T2 sequence (P98170 246-497): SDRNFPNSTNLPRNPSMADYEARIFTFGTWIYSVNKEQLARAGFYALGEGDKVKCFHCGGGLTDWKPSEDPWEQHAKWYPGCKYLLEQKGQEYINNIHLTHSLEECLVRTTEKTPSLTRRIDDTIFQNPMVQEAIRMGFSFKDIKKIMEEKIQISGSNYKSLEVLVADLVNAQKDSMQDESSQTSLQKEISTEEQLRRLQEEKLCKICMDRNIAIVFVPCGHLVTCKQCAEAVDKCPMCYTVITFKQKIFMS
Method in brief: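 293-cell S100 extract with 0.25 uM-2 uM GST-XIAP fusion and compound (0.02 uM-40 uM), activated by 1 mM dATP, 0.1 mM ALLN and cytochrome C at 37° C. for 25 min in pH 7.0 Pipes buffer. Caspase-3 activity read as initial rate of DEVD-AMC cleavage (ex 360/em 444 nm) over 1 h, relative to fully activated and XIAP-repressed extract.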

GST-HIAP1(cIAP-2) BIR 3 = biological target: T3, GST-HIAP1(cIAP-2) BIR 3 (Homo sapiens, UniProt Q13489); assay: Fluorescence polarization-based competition assay, cIAP-2 Bir3; assay type: binding
T3 construct: made in house; host or cells: E. coli DH5-alpha
T3 sequence (Q13489 236-349): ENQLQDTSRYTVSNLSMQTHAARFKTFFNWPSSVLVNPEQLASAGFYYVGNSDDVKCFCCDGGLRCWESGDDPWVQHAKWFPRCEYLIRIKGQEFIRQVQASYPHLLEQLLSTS
Method in brief: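 GST-cIAP-2 BIR3 (aa 236-349, E. coli-expressed) at a pre-titrated fixed level, with fluorescein-labelled AVPF-peptide probe and 10-point compound dilutions in 50 mM MES pH 6.5 with BSA. Fluorescence polarization read at Ex 485/Em 535 nm; IC50 from curve fit, Ki derived per Nikolovska-Coleska equation.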

GST-XIAP BIR3RING = biological target: T4, GST-XIAP BIR3RING (Homo sapiens, UniProt P98170); assay: Fluorescence polarization-based competition assay, XIAP Bir3-RING; assay type: binding
T4 construct: made in house; host or cells: E. coli DH5-alpha
T4 sequence (P98170 246-497): as the sequence (P98170 246-497) above
Method in brief: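 Competitive fluorescence polarization with GST-XIAP BIR3-RING (aa 246-497, E. coli-expressed) and a fluorescein-labelled peptide probe in 50 mM MES pH 6.5 with BSA; protein fixed at titrated linear-signal level. Compound autofluorescence and quenching checked; IC50 from 10-point dilutions, Ki derived by Nikolovska-Coleska equation.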

[3] = biological target: T5, caspase-3 inhibited by linker BIR2-BIR3-RING of XIAP (Homo sapiens, UniProt P98170); assay: Caspase-3 linker-BIR2-BIR3-RING derepression assay; assay type: biochemical
T5 construct: made in house; host or cells: E. coli DH5-alpha (GST-XIAP); E. coli AD494 (His-caspase-3)
T5 sequence (P98170 93-497): as the sequence (P98170 93-497) above
Procedure: In order to determine the relative activity of the selected compound against BIR2, an in vitro assay was used where caspase-3 was inhibited by linker-BIR2 or linker BIR2-BIR3-RING of XIAP. Briefly, 1.5 ul of the enzyme, 0.25 uM to 2 uM of GST-Xiap fusion protein (GST-linker BIR2, GST-linker BIR2BIR3RING) were co-incubated with serial dilutions of compound (80 uM-0.04 uM). Caspase 3 activity was measured by overlaying 25 ul of a 0.4 mM DEVD-AMC solution. Final reaction volume was 100 ul. All dilutions were performed in caspase buffer (50 mM Hepes pH 7.4, 100 mM NaCl, 10% sucrose, 1 mM EDTA, 10 mM DTT, 0.1% CHAPS (Stennicke, H. R., and Salvesen, G. S. (1997). Biochemical characteristics of caspase-3, -6, -7, and -8. J. Biol. Chem. 272, 25719-25723)).
The fluorescent AMC released from the caspase-3 hydrolysis of the substrate was measured in a TECAN spectrophotometer at 360 nm excitation and 444 nm emission, on a kinetic cycle of 30 minutes with readings taken every 2 minutes. Caspase activity was calculated as Vo of AMC fluorescence/sec. Caspase de-repression by our compounds were compared to caspase-3 alone and caspase 3 repressed by the presence of XIAP fusion protein.
as §2

GST-HIAP2 (cIAP-1) BIR 3 = biological target: T6, GST-HIAP2 (cIAP-1) BIR 3 (Homo sapiens, UniProt Q13490); assay: Fluorescence polarization-based competition assay, cIAP-1 Bir3; assay type: binding
T6 construct: made in house; host or cells: E. coli DH5-alpha
T6 sequence (Q13490 251-363): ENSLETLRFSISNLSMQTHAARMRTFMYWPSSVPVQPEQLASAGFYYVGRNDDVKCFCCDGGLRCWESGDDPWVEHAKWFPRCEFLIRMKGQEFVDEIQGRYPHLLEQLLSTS
Method in brief: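 GST-cIAP-1 BIR3 (aa 251–363, E. coli) at a titrated fixed level, combined with fluorescein-labelled peptide probe and a 10-point compound series in 50 mM MES pH 6.5 with BSA. Polarization read at ex 485/em 535 nm; IC50 fitted, and Ki derived using the Nikolovska-Coleska equation.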

MDA-MB-231 cells = assay: Survival assay (MTS) on MDA-MB-231 cells; assay type: cell-based; conditions: Homo sapiens, 72 hours, read-out: EC50 MDA-MB-231 breast derived cell line
Procedure: MDA-MD-231 (breast) and H460 (lung) cancer cells were cultured in RPMI1640 media supplemented with 10% FBS and 100 units/mL of Penicillin and Steptomycin.
as §1

H460 cells = assay: Combination anti-cancer therapy in vivo with Taxotere, H460 tumors; parameters: species or system Female CD-1 nude mice; conditions: cumulative dose of 20 mg/kg, sc per day
Procedure: Taxotere (30 mg/kg, ip)/Saline (n=9)
Taxotere (30 mg/kg, ip)/compound 56 (2×5 mg/kg, sc) (n=10)
Female CD-1 nude mice (approximately 20-25 g) were subcutaneously injected with 1×10^6 H460 cells in the right flank. Animals were balanced into groups based on tumor size and drug therapy began when tumors were ˜30-50 mm^3. Animals that had no tumor or that were deemed outliers because of excessive tumor size at this time were removed from the study. The remaining animals received Taxotere (or equivalent volume of vehicle) at 30 mg/kg, ip 2 times, one week apart. The compound was given two times per day (at 10 mg/kg, sc, approximately 6 hrs apart), starting at the time of Taxotere, and continuing daily for the duration of the experiment. If dehydration occurred, animals received sc fluids (0.5 ml). Tumor size was measured three times per week. Health assessments were performed at the time of the compound's delivery.

[4] = test system: selected cell lines in hollow fibers; assay: Hollow fiber in vivo model; parameters: species or system Nu/Nu CD-1 male mice; conditions: Method 37, sub-cutaneous route
Procedure: At day 1, selected cell lines were cultured and the fiber filled at a cell density of about 40,000 cells/fiber. At the day of operation (day 4), three fibers are implanted sub-cutaneous into 28-35 Nu/Nu CD-1 male mice. On day 5, mice start to receive daily injection via sub-cutaneous route of control vehicle or vehicle containing the selected compound at the appropriate concentration and/or injection of cytotoxic agent via intra-peritoneal route. Upon 7 days of non-consecutive treatments, the animals are sacrificed, each fiber is removed and the metabolic viability of the remaining cells determined by MTT assay. Efficacy of the compound is define as the difference between the vehicle-treated animal and the animal treated with the compound alone or the compound given in combination of the cytotoxic agent

XIAP BIR3 = assay: Pull-down assay with affinity beads, western blot; assay type: binding; conditions: Method 33A
Procedure: Prior to the pull-down assay the compound 168-affinity-agarose beads were prepared as follows:
300 ul of avidine-agarose beads prepared as 50% slurry in buffer A were incubated with 40 ul compound 168 (2.5 mM final) for 6 hrs at 4° C. with shaking. Upon incubation the beads were washed 3 times with buffer A.
On the day of the pull-down assay, cells such as MDA-MB-231 or 293A were collected and lyzed with a buffer A containing 20 mM Tris HCl, 150 mM NaCl, 10% Glycerol 1% NP-40 and Protease inhibitor cocktail obtained from Sigma with a final protein concentration between 3 to 30 ug/ul.
For the pull-down assay, 60 ul of the compound 168-beads preparation were incubated with 300 ug cells lysate and 10 ul compound 107 (0.36 mM final) or as control with 10 ul of buffer A to get a final volume of 550 ul. The mixture was then incubated at 4 C over night with shaking. The following day, the beads were washed three times with the buffer A and the final bead pellet was re-suspended in 50 ul of 2× Leamli buffer. The samples were then centrifuged and the supernatant was collected for western blot analysis directed against XIAP of the other IAP's.
Alternatively a similar protocol was performed with AVPI-Biotin and IPVA-Biotin probes.

CN[C@@H](C)C(=O)N[C@H](C(=O)N1CCC[C@H]1CN(CCc1ccccc1)C(=O)c1ccc(C(=O)N(CCc2ccccc2)C[C@@H]2CCCN2C(=O)[C@@H](NC(=O)[C@H](C)NC)C(C)(C)C)cc1)C(C)(C)C [Compound 175]
EC50 (SKOV-3 cell line): < 5000 nM

CN[C@@H](C)C(=O)N[C@H](C(=O)N1CCC[C@H]1CNCCc1ccccc1)C(C)(C)C [Compound 16]
IC50 [1]: > 10000 nM | IC50 [2]: < 1000 nM | IC50 (GST-HIAP1(cIAP-2) BIR 3): < 10000 nM | IC50 (GST-XIAP BIR3RING): < 10000 nM | IC50 [3]: > 10000 nM | IC50 (GST-HIAP2 (cIAP-1) BIR 3): < 1000 nM | EC50 (MDA-MB-231 cells): < 5000 nM

CN[C@@H](C)C(=O)N[C@H](C(=O)N1CCC[C@H]1CN(CCc1ccccc1)C(=O)[C@H](N)Cc1ccc(F)cc1)C(C)(C)C [Compound 53]
IC50 (GST-HIAP1(cIAP-2) BIR 3): < 1000 nM | IC50 (GST-XIAP BIR3RING): < 1000 nM | IC50 (GST-HIAP2 (cIAP-1) BIR 3): < 1000 nM | EC50 (MDA-MB-231 cells): < 5000 nM

CN[C@@H](C)C(=O)N[C@H](C(=O)N1CCC[C@H]1CN(CCc1ccccc1)C(=O)[C@@H](Cc1ccccc1)NC)C(C)(C)C [Compound 52]
IC50 (GST-HIAP1(cIAP-2) BIR 3): < 1000 nM | IC50 (GST-XIAP BIR3RING): < 1000 nM | IC50 (GST-HIAP2 (cIAP-1) BIR 3): < 1000 nM | EC50 (MDA-MB-231 cells): < 5000 nM

CN[C@@H](C)C(=O)N[C@H](C(=O)N1CCC[C@H]1CN(CCc1ccccc1)C(=O)c1ccc(-c2ccc(C(=O)N(CCc3ccccc3)C[C@@H]3CCCN3C(=O)[C@@H](NC(=O)[C@H](C)NC)C(C)(C)C)cc2)cc1)C(C)(C)C [Compound 178]
EC50 (SKOV-3 cell line): < 5000 nM

CN[C@@H](C)C(=O)N[C@H](C(=O)N1CCC[C@H]1CN(CCc1ccccc1)C(=O)CCCCCCCCC(=O)N(CCc1ccccc1)C[C@@H]1CCCN1C(=O)[C@@H](NC(=O)[C@H](C)NC)C(C)(C)C)C(C)(C)C [Compound 176]
EC50 (SKOV-3 cell line): < 5000 nM

CN[C@@H](C)C(=O)N[C@H](C(=O)N1CCC[C@H]1CN(CCc1ccccc1)C(=O)[C@H](N)Cc1ccc(OC)cc1)C(C)(C)C [54 bis-HCl]
Anti-tumor activity in combination with Taxotere (H460 cells): anti-tumor activity | MTT signal in hollow fiber model [4]: reduction in MTT signal

CN[C@@H](C)C(=O)N[C@H](C(=O)N1CCC[C@H]1CN(CCc1ccccc1)C(=O)CCCCC1SC[C@@H]2NC(=O)N[C@H]12)C(C)(C)C (stereo partly drawn) [Compound 168]
Pull-down of XIAP BIR3 (Western-blot) (XIAP BIR3): XIAP BIR3 was pulled-down

CN[C@@H](C)C(=O)N[C@H](C(=O)N1CCC[C@H]1CN(CCc1ccccc1)C(=O)CCCC(=O)N(CCc1ccccc1)C[C@@H]1CCCN1C(=O)[C@@H](NC(=O)[C@H](C)NC)C(C)(C)C)C(C)(C)C [Compound 177]
EC50 (SKOV-3 cell line): < 5000 nM

CN[C@@H](C)C(=O)N[C@H](C(=O)N1CCC[C@H]1CN(CCc1ccccc1)C(=O)[C@H](N)Cc1ccccc1)C(C)(C)C [Compound 42]
IC50 (GST-HIAP1(cIAP-2) BIR 3): < 1000 nM | IC50 (GST-XIAP BIR3RING): < 1000 nM | IC50 (GST-HIAP2 (cIAP-1) BIR 3): < 1000 nM | EC50 (MDA-MB-231 cells): < 5000 nM

CN[C@@H](C)C(=O)N[C@H](C(=O)N1CCC[C@H]1CN(CCc1ccccc1)C(=O)CNCc1ccccc1)C(C)(C)C [Compound 45]
IC50 (GST-HIAP1(cIAP-2) BIR 3): < 1000 nM | IC50 (GST-XIAP BIR3RING): < 1000 nM | IC50 (GST-HIAP2 (cIAP-1) BIR 3): < 1000 nM | EC50 (MDA-MB-231 cells): < 5000 nM
